These results are taken from patent US20170046476A1, “SYSTEMS, APPARATUS, AND METHODS FOR ANALYZING AND PREDICTING CELLULAR PATHWAYS” (priority 2015, published 2017).

This test has as its system STHdh Q111 cells. Briefly: Multiparameter high content imaging for the analysis of cell apoptosis (calcein-AM / propidium iodide / Hoechst). Format: cell-based, mouse. The conditions noted are these: for apoptosis / percentage of dead cells (propidium iodide-positive cells): STHdh Q111 cells treated with FTY720-P vs untreated (vehicle), 24 hours, serum-free medium, P-value=7.98×10^−5, two-sided student t-test, two independent experiments, twenty replicates each. The text has this:
FIG. 16B is a bar plot comparing percentages of dead cells in STHdh Q111 cells not treated with an analogue of S1P (FTY720-P) to STHdh Q111 cells treated with FTY720-P in accordance with some embodiments. […] In contrast, this approach inferred the underlying network of sphingolipid dysregulation and the role of S1P in diseased cells without any prior assumptions.
FIG. 17 is a series of images illustrating cell viability, morphology, and shape in accordance with some embodiments. Images 1702, 1704, and 1706 show STHdh Q7 cells, STHdh Q111 cells, and STHdh Q111 cells treated with FTY720-P, respectively, following treatment with calcein to detect viable cells and monitor changes in cell shape and morphology. Images 1708, 1710, and 1712 show STHdh Q7 cells, STHdh Q111 cells, and STHdh Q111 cells treated with FTY720-P, respectively, following treatment with propidium iodide, which stains late apoptotic cells with damaged membranes. As shown, hidden components inferred by using the described approach rescue diseased cells.
According to some embodiments, STHdhQ7/Q7 and STHdhQ111/Q111 striatal cells were trypsinized, harvested in pre-warmed growth medium and quantified using an automated cell counter (available from, e.g., Countess II, Life Technologies). Six thousand cells per well were seeded in sterile, black 96-well microplates with flat, clear bottom. After 24 hours, the complete medium was removed and replaced with phenol red- and serum-free medium containing either FTY720 phosphate (available from Sigma-Aldrich) or vehicle (e.g., DMSO, available from Sigma-Aldrich) and cells were incubated for 24 hours at 33° C. A multiple staining solution containing 1 μg/ml calcein-AM, 2 μg/ml propidium iodide and 1.5 μg/ml […] (all available from Life Technologies) was added to detect and quantify live, dead, and total cells, respectively. After 20 minutes in incubation, a Cellomics Arrayscan Platform (available from Thermo Scientific) was used for imaging acquisition. […] Cell loss was expressed as the percentage of propidium iodide-positive cells. […]

For FTY720 phosphate [FTY720-P], the “apoptosis / percentage of dead cells (propidium iodide-positive cells)” value was “significantly decreasing apoptosis”. Moreover, the “apoptosis / percentage of dead cells (propidium iodide-positive cells)” value (listed as Phosphorylated FTY720) is recorded as “significantly decrease apoptosis”. Moreover, the “effect of treating diseased cells (neuroprotection)” value (STHdh cell line model of Huntington's disease, summary statement) is “neuroprotective effects”.
